Assay [1] has as its target T1, Adrenergic receptor alpha-2 (UniProt P08913+P18825+P18089). The settings on record: Cavia porcellus; Ileum.
Description: Tested for alpha adrenergic activity against alpha-2 receptor from isolated guinea pig ileum
Assay [2] addresses Beta-1 adrenergic receptor (Rattus norvegicus, UniProt P18090). Nature of the assay: biochemical.
Description: Tested for binding affinity against beta-1 adrenergic receptor in rat brain using [3H]-CGP- 26505 as radioligand
Assay [3] addresses Beta-2 adrenergic receptor (Cavia porcellus, UniProt Q8K4Z4). Nature of the assay: Inhibitory activity against beta-2 adrenergic receptor in guinea pig tracheal strip is determined.
In assay [4] the target is Beta-1 adrenergic receptor (Cavia porcellus, UniProt B0FL73).
Chain of Beta-1 adrenergic receptor (Cavia porcellus, UniProt B0FL73) (B0FL73 whole entry): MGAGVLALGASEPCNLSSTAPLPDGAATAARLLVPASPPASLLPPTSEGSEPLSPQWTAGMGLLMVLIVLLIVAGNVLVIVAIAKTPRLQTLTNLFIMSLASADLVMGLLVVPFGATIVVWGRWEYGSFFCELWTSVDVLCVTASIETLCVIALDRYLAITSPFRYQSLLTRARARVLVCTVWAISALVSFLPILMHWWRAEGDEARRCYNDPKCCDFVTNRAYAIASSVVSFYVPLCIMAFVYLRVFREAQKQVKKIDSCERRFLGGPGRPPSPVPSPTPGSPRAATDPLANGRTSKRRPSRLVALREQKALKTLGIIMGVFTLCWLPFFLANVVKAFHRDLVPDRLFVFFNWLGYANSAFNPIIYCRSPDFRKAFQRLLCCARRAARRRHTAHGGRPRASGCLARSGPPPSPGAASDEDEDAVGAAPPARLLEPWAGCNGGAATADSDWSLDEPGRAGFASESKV
Description: (§1) Inhibitory activity against beta-1 adrenergic receptor in guinea pig atria is determined
The target of assay [5] is T1, Adrenergic receptor alpha-2. The settings on record: Cavia porcellus; Ileum. The source holds these as a separate data set.
Description: Intrinsic activity against alpha-2 receptor in isolated guinea pig ileum
In assay [6] the target is Beta-2 adrenergic receptor (Bos taurus, UniProt Q28044). Nature of the assay: Tested for binding affinity against beta-2 adrenergic receptor in bovine lung using [3H]DHA as radioligand.
Chain of Beta-2 adrenergic receptor (Bos taurus, UniProt Q28044) (Q28044 whole entry): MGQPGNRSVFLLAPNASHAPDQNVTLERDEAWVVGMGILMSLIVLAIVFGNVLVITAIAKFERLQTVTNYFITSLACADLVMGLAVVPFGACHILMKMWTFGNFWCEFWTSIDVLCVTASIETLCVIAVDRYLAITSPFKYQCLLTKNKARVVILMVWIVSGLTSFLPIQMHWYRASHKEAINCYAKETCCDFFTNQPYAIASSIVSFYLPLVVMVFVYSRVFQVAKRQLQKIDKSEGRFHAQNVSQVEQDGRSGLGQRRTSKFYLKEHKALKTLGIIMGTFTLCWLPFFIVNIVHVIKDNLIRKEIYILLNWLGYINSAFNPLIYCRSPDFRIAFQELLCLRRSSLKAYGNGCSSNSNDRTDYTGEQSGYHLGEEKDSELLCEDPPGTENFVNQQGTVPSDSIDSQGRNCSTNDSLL
The target of assay [7] is T2, Adrenergic receptor alpha-2 (Rattus norvegicus, UniProt P22086+P19328+P22909).
T2 sequence (P22086 whole entry): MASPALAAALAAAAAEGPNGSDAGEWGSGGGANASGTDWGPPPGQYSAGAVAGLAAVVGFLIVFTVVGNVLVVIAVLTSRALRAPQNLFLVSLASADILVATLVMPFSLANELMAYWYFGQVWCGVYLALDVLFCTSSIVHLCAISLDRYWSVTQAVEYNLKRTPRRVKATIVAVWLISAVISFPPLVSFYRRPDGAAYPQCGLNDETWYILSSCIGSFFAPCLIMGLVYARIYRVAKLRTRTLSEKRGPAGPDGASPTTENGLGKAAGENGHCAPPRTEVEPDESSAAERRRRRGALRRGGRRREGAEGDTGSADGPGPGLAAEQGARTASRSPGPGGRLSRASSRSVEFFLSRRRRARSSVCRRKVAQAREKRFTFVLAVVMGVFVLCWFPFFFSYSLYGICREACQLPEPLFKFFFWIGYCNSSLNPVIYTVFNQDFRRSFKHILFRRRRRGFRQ
T2 sequence (P19328 whole entry): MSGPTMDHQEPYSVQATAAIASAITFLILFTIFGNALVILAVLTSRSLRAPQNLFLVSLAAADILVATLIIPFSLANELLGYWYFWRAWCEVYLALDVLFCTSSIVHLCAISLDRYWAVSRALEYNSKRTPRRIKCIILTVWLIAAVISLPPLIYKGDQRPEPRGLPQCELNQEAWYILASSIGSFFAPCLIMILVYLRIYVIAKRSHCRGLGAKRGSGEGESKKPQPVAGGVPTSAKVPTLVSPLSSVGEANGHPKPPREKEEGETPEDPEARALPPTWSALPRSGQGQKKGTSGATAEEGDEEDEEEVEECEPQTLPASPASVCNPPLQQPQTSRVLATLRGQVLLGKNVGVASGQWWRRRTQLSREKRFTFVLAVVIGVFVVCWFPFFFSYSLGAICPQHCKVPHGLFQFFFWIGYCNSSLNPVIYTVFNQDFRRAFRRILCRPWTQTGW
T2 sequence (P22909 whole entry): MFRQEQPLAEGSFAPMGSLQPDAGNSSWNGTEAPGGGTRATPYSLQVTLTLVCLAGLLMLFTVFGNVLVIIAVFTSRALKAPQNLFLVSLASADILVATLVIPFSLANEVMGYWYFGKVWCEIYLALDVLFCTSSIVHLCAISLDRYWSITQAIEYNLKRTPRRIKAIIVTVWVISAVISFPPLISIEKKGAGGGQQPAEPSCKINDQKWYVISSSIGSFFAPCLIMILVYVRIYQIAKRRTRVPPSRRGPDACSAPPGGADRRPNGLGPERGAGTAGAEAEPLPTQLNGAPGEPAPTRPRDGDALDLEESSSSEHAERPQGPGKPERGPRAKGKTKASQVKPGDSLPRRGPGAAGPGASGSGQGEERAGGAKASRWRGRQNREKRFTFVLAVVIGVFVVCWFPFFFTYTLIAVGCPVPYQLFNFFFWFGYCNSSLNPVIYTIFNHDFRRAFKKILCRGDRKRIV

Assay [8] has as its target T3, Adrenergic receptor alpha-1 (Rattus norvegicus, UniProt P15823+P23944+P43140).
T3 sequence (P15823 whole entry): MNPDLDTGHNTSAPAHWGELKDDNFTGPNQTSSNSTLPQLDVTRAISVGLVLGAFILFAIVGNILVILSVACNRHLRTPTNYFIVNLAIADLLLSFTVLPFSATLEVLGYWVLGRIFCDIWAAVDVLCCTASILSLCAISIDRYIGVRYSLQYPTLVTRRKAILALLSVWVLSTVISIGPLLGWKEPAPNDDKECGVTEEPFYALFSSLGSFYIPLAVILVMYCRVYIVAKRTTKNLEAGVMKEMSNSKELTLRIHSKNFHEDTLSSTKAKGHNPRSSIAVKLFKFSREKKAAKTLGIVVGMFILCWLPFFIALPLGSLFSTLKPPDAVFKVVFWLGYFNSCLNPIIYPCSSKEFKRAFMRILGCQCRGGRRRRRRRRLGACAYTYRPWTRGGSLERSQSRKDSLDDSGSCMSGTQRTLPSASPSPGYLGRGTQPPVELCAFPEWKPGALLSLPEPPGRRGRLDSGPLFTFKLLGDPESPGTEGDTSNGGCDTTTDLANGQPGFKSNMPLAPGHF
T3 sequence (P23944 whole entry): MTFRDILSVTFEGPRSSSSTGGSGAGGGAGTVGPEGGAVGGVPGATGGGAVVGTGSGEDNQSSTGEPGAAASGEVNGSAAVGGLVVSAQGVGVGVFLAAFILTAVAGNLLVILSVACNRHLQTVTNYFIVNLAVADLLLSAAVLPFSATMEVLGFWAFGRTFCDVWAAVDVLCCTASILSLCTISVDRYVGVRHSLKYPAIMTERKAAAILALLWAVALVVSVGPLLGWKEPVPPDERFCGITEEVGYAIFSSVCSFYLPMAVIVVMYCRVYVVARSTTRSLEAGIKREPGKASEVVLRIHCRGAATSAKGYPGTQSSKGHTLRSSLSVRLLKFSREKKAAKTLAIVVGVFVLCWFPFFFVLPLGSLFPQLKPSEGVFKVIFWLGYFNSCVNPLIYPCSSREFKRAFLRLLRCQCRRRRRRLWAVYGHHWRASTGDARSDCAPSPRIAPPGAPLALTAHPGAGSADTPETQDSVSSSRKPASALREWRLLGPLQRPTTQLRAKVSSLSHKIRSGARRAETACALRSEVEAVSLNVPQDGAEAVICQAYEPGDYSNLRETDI
T3 sequence (P43140 whole entry): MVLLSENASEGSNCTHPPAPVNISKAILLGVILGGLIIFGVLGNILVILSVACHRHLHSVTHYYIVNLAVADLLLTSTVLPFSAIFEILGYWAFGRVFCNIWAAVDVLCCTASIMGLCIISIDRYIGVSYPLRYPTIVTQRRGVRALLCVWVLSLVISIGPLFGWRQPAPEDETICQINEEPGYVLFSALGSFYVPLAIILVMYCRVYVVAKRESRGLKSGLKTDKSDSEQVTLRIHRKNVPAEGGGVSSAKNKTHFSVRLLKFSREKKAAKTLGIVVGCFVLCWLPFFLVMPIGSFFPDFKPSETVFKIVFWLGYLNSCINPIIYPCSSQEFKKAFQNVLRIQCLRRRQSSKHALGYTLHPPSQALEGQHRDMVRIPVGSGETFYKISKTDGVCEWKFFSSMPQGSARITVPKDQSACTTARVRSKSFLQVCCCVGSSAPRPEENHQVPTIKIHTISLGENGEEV

Assay [9] concerns the target T3, Adrenergic receptor alpha-1. Description: -log IC50 value against alpha-1 receptor in rat vas deferens. In kind it is tissue-based.
The target in assay [10] is Beta-2 adrenergic receptor (Cavia porcellus) (UniProt Q8K4Z4).
Chain of Beta-2 adrenergic receptor (Cavia porcellus) (Q8K4Z4 whole entry, looked up): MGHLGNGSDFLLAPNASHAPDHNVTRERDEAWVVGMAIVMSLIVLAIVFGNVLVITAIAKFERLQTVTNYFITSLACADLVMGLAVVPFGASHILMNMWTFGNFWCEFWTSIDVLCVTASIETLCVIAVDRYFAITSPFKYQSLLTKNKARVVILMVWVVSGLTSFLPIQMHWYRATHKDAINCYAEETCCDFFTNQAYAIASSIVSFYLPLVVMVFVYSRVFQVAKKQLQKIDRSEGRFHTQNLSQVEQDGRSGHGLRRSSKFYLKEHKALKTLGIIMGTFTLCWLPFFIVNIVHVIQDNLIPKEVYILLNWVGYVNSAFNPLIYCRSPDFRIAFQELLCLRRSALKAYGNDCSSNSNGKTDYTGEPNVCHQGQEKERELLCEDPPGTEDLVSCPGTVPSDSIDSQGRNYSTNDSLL
The target of assay [11] is T4, Adrenergic receptor alpha-1 (Rattus norvegicus) (UniProt P15823+P23944+P43140). Nature of the assay: Intrinsic activity against alpha-1 receptor in isolated rat vas deferens. It counts as tissue-based.
For assay [12], the target named is T4, Adrenergic receptor alpha-1 (Rattus norvegicus). Nature of the assay: Tested for alpha adrenergic activity against alpha-1 receptor from isolated rat vas deferens. In kind it is tissue-based.
In assay [13] the target is Beta-2 adrenergic receptor (Cavia porcellus) (UniProt Q8K4Z4). This is another data set of the same source.
Assay [14] addresses Beta-1 adrenergic receptor (Cavia porcellus) (UniProt B0FL73).
Description: as §1
For assay [15] the target is unchanged. Description: Intrinsic activity against beta-1 receptor in isolated guinea pig atria.

This is an account of results in ChEMBL document CHEMBL1126851, “Conformationally restrained analogs of sympathomimetic catecholamines. Synthesis, conformational analysis, and adrenergic activity of isochroman derivatives” (J Med Chem, 1993).

Chain of Beta-2 adrenergic receptor (Cavia porcellus, UniProt Q8K4Z4) (Q8K4Z4 whole entry): as the sequence (Q8K4Z4 whole entry, looked up) above
Chain of Beta-1 adrenergic receptor (Rattus norvegicus, UniProt P18090) (P18090 whole entry): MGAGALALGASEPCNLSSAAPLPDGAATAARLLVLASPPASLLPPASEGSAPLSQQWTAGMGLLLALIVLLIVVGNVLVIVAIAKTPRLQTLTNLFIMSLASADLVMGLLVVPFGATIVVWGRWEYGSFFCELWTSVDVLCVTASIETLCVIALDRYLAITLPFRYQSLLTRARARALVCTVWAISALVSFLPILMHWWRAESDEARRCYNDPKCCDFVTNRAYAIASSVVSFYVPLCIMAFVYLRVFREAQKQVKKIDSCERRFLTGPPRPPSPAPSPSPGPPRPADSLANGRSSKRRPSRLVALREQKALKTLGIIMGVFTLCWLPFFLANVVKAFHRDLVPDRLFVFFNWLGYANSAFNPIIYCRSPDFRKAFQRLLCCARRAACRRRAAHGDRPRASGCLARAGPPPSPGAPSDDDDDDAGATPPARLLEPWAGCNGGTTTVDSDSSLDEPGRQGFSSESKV
T1 sequence (P08913 whole entry, looked up): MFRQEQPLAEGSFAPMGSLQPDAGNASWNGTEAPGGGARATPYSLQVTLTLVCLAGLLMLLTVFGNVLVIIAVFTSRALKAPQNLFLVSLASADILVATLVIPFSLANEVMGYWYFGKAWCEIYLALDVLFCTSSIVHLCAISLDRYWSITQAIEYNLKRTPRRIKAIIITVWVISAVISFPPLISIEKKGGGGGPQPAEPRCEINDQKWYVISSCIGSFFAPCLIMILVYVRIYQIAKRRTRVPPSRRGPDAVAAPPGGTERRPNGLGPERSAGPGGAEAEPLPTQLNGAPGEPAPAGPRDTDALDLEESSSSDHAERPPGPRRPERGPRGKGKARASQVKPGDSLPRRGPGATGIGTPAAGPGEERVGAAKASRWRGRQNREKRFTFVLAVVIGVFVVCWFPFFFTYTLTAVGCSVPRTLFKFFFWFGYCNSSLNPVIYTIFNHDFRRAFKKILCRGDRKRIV
T1 sequence (P18089 whole entry, looked up): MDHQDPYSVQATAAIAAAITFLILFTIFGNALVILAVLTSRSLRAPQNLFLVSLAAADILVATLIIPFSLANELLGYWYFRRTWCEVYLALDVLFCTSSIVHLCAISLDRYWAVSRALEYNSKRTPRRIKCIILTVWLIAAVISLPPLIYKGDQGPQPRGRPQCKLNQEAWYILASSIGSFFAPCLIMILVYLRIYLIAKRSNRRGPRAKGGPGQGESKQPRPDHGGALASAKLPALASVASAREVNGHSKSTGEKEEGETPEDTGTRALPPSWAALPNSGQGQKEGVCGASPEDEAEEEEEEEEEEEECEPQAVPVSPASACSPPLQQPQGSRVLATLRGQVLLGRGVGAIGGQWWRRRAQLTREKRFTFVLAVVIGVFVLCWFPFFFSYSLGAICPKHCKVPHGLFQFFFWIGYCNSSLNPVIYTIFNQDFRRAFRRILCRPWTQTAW
T1 sequence (P18825 whole entry, looked up): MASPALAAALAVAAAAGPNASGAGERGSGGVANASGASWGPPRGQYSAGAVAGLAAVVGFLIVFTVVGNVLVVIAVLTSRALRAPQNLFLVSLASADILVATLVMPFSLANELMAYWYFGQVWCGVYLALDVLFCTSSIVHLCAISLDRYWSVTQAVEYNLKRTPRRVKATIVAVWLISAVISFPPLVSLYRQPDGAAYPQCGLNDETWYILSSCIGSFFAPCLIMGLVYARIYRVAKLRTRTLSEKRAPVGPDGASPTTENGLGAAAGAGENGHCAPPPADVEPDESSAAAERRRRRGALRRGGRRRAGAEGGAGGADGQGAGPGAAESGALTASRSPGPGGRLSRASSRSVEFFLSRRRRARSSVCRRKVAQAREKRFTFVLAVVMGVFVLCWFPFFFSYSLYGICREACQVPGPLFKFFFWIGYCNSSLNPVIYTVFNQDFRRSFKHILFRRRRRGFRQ
Chain of Beta-1 adrenergic receptor (Cavia porcellus) (B0FL73 1-467): as the sequence (B0FL73 whole entry) above

In turn, `CC(C)NCC1OCCc2cc(O)c(O)cc21` (stereo unspecified) came in with a pD2 in assay [1] of 4.56. In addition, the Ki in assay [2] came to 1.49 µM; in assay [6], 4.9 µM; in assay [7], 4.12 µM; in assay [8] it was 26 µM. The IC50 was 5.5 µM in [3] and 33.9 µM in assay [4]. In assay [5], the IA was found to be 0.72.
Take `CC(C)NCC1OCCc2c1ccc(O)c2O` (stereo unspecified): the results for the pD2 in assay [1] and in assay [10] were 5.26 and under 3.5, respectively. In addition, the Ki in [2] amounted to 28.8 µM; in assay [6], 14.9 µM; in assay [7], 1.78 µM; in assay [8], 21.5 µM. For the same compound, in assay [9], the “-Log IC50” value is reported as under 3.5. In assay [4], this compound showed a 50% inhibitory concentration (IC50) of over 316 µM. The IA in [5] was found to be 1.
For the compound `NCC1OCCc2c1ccc(O)c2O` (stereo unspecified), the inhibition constant (Ki) worked out at 40.3 µM in [2], 49.9 µM in assay [6], 0.0074 µM in assay [7] and 42.2 µM in [8]. Also, the IA in assay [11] worked out at 1.03; in [5], 1. Moreover, the IC50 in assay [3] is over 316 µM; in [4], 66.1 µM. Besides, the pD2 in [12] worked out at 4.69.
Regarding `NCC1OCCc2cc(O)c(O)cc21` (stereo unspecified), the pD2 is 5.45 in assay [1] and 3.97 in assay [12]. For the same compound, the Ki in assay [2] stood at 3.45 µM; in [6], 28.8 µM; in [7] it was 1.28 µM; in assay [8] it was 60.3 µM. Moreover, the IA in [11] was 0.42; in assay [5] it was 0.73. For the same compound, the results for the IC50 in [3] and in assay [4] were 30.2 µM and 6.76 µM, respectively.
For the compound `NC[C@H](O)c1ccc(O)c(O)c1`, the pD2 was found to be 6.56 in assay [1], 6.32 in assay [14], 5.12 in assay [12] and 6.03 in assay [10]. The IA in [11], in assay [13], in [5] and in assay [15] was 1 throughout.
On to `CC(C)NCC(O)c1ccc(O)c(O)c1` (stereo unspecified), for which the results for the IA in assay [11] and in assay [13] were 0.83 and 1, respectively.

A word on the Ki: it is a measure of affinity in units of concentration, obtained from inhibition or displacement. Lower therefore signals higher affinity. For orientation: IC50 means the concentration that gives 50% inhibition. A high value points to lower potency.
